# Measured values taken from patent US10087199B2, “Super-resolution imaging compositions and methods using same” (Yale University, priority 2014, dated 2018).
# “Also recorded” adds a separate entry of the source.
# Key:
# [1] = test system: HeLa cells stably transfected to express GalNAcT2-GFP (Golgi); test: Incubation with premixed/preassembled Cer-SiR (Golgi labeling); assay type: cell-based; conditions: approximately 2 μM Cer-SiR solution; three protocols A-C
# Protocol: An approximately 2 μM solution of Cer-SiR was prepared as follows: Stock solutions in DMSO of SiR-Tz and Cer-TCO were added to a PBS buffer supplemented with 1% casein to achieve a final concentration of 2 μM for both components. The solution was thoroughly mixed and incubated for 15 min at room temperature. Before the solution was added to dishes containing cells, Pluronic F-127 was added (0.2% final concentration). The formation of Cer-SiR was confirmed by HPLC.
# Protocol A: HeLa cells stably transfected to express GalNAcT2-GFP were cultured on 35 mm glass bottom dishes (Mattek), washed with DMEM (3×) and incubated with the Cer-SiR solution (prepared as described elsewhere herein) for 5 min at 37° C. The dish was washed with DMEM (3×) and incubated at 19.5° C. for 60 min, washed with DMEM (3×) and imaged.
# Protocol B: Same as protocol A, but without the wash step before the incubation at 19.5° C.
# Protocol C: HeLa cells stably transfected to express GalNAcT2-GFP were cultured on 35 mm glass bottom dishes (Mattek), washed with DMEM (3×) and incubated with the Cer-SiR solution described for 30 min at 4° C. The dish was washed with DMEM (3×) and incubated at 37° C. for 30 min, washed with DMEM (3×) and imaged. This protocol was similar to the protocol used for Golgi labeling with BODIPY-Cer.
# [2] = test system: fixed cells with labeled Golgi; test: Photostability in STED microscopy of fixed cells; assay type: cell-based; conditions: 0.52 frames/sec for 29 min (900 images)
# Protocol: To evaluate the merits of Cer-SiR for super-resolution imaging of the Golgi, HeLa cells that stably expressed GalNAcT2-GFP were labeled with Cer-TCO and SiR-Tz, and imaged by confocal and STED microscopy using a commercial Leica instrument (FIGS. 6A-6C). The confocal and STED images were compared in FIG. 6A. […] A direct comparison of the relative photostabilities of Cer-SiR and SiR-SNAP-Rab6 in fixed cells was performed using a custom STED microscope that is optimized for rapid image acquisition (FIG. 6B). Cells labeled with Cer-SiR or SiR-SNAPRab6 were continuously imaged at a rate of 0.52 frames/sec for 29 min (900 images) and the intensity of a line across the Golgi was plotted (FIG. 6B). […]
# STED imaging was performed on a custom built system (Bewersdorf lab, Yale University) centered around an 80 MHz mode-locked Ti:Sapphhire laser (Chameleon Ultra II, Coherent) tuned to 755 nm as the STED depletion beam. […] Excitation for fluorescence was accomplished with a 640 nm pulsed diode laser (PicoQuant) electronically synchronized to the depletion beam with an additional computer controlled electronic delay (Colby Instruments). The STED depletion and fluorescence excitation beams were combined with a dichroic mirror and directed into a 100×1.4 NA oil immersion objective lens (UPLSAPO 100XO/PSF, Olympus) where they were focused at the sample. […]
smiles,measurement,setting,value
"CCCCCCCCCCCCC/C=C/[C@@H](O)[C@H](CO)NC(=O)CCCCCNC(=O)OC1CCCC2=C(c3ccc(CNC(=O)c4ccc(C(=O)[O-])c(C5=C6C=CC(=[N+](C)C)C=C6[Si](C)(C)c6cc(N(C)C)ccc65)c4)cc3)NN=CC2CC1 (stereo partly drawn) [Cer-SiR, 4-((4-(7-(((6-(((2S,3R,E)-1,3-dihydroxyoctadec-4-en-2-yl)amino)-6-oxohexyl)carbamoyl)oxy)-2,4a,5,6,7,8,9,10-octahydrocycloocta[d]pyridazin-1-yl)benzyl)carbamoyl)-2-(7-(dimethylamino)-3-(dimethyliminio)-5,5-dimethyl-3,5-dihydrodibenzo[b,e]silin-10-yl)benzoate]",Golgi labeling with preassembled Cer-SiR,[1],not suitable for Golgi labeling; also recorded: did not lead to Golgi labeling
same,Stability of STED images under continuous imaging,[2],stable throughout all 900 images
